In PMC7320180, “Hydroxamic acid derivatives as HDAC1, HDAC6 and HDAC8 inhibitors with antiproliferative activity in cancer cell lines” (Scientific Reports, 2020):
Read-outs that look alike come from different tables or passages of the source.

How the values were obtained:
HepG2 cells = assay: MTT cytotoxicity test, HepG2; type: cell-based; conditions: Homo sapiens, HepG2, 72 h; MTT, 3 days; read-out: IC50 (µM) HepG2
Experimental: (§1) All compounds were evaluated in triplicate using six points, 1/3 dilutions, with the highest concentration of 50 µM. The triplicate measurements were placed in three different 96-plates, and 1% DMSO was used as a negative control.
(§2) The first sets of […] (GH38, GH18, GH27, FH38, FH18, […] and FH37) were evaluated in different cancer cell lines: HepG2, MCF-7, SH-SY5Y, MIA PaCa-2, and […]. Furthermore, the second series of eight compounds were evaluated using seven cell lines: SH-SY5Y which is a neuroblastoma cell line; HepG2, a hepatocellular carcinoma cell line; MIA PaCa-2, a human pancreatic carcinoma cell line; MCF-7, a breast cancer cell line; HCC1954, a basal-Her2+ breast carcinoma cell line; RCC4-VA, a renal carcinoma cell line with a VHL mutation; and RCC4-VHL, a renal carcinoma cell without the VHL mutation (wild type). The cells used were seeded in 96-well plates and left for 24 h (5% CO2 and 90% humidity, 50000 cells/well) and incubated for 3 days to study the cytotoxicity.

MIA PaCa-2 cells = assay: MTT cytotoxicity test, MIA PaCa-2; type: cell-based; conditions: Homo sapiens, MIA PaCa-2, 72 h; MTT, 3 days; read-out: IC50 (µM) MIA PaCa-2
Experimental: as §1, §2

MCF-7 cells = assay: MTT cytotoxicity test, MCF-7; type: cell-based; conditions: Homo sapiens, MCF7, 72 h; MTT, 3 days; read-out: IC50 (µM) MCF-7
Experimental: as §1, §2

HCC1954 cells = assay: MTT cytotoxicity test, HCC1954; type: cell-based; conditions: 3 days
Experimental: as §1, §2

RCC4-VA cells = assay: MTT cytotoxicity test, RCC4-VA; type: cell-based; conditions: 72 h, 3 days
Experimental: as §1, §2

RCC4-VHL cells = assay: MTT cytotoxicity test, RCC4-VHL; type: cell-based; conditions: Homo sapiens, 72 h, 3 days
Experimental: as §1, §2

SH-SY5Y cells = assay: MTT cytotoxicity test, SH-SY5Y; type: cell-based; conditions: Homo sapiens, 72 h, 3 days
Experimental: as §1, §2

HDAC1 = target: T1, HDAC1 (Homo sapiens, UniProt Q13547); assay: HDAC fluorometric enzymatic inhibition assay, HDAC1; type: biochemical
T1 construct: purchased Enzo Life Sciences BML-AK511

HDAC6 = target: T2, HDAC6 (Homo sapiens, UniProt Q9UBN7); assay: HDAC fluorometric enzymatic inhibition assay, HDAC6; type: biochemical
T2 construct: purchased Enzo Life Sciences BML-AK516
T2 sequence (Q9UBN7 1-1215): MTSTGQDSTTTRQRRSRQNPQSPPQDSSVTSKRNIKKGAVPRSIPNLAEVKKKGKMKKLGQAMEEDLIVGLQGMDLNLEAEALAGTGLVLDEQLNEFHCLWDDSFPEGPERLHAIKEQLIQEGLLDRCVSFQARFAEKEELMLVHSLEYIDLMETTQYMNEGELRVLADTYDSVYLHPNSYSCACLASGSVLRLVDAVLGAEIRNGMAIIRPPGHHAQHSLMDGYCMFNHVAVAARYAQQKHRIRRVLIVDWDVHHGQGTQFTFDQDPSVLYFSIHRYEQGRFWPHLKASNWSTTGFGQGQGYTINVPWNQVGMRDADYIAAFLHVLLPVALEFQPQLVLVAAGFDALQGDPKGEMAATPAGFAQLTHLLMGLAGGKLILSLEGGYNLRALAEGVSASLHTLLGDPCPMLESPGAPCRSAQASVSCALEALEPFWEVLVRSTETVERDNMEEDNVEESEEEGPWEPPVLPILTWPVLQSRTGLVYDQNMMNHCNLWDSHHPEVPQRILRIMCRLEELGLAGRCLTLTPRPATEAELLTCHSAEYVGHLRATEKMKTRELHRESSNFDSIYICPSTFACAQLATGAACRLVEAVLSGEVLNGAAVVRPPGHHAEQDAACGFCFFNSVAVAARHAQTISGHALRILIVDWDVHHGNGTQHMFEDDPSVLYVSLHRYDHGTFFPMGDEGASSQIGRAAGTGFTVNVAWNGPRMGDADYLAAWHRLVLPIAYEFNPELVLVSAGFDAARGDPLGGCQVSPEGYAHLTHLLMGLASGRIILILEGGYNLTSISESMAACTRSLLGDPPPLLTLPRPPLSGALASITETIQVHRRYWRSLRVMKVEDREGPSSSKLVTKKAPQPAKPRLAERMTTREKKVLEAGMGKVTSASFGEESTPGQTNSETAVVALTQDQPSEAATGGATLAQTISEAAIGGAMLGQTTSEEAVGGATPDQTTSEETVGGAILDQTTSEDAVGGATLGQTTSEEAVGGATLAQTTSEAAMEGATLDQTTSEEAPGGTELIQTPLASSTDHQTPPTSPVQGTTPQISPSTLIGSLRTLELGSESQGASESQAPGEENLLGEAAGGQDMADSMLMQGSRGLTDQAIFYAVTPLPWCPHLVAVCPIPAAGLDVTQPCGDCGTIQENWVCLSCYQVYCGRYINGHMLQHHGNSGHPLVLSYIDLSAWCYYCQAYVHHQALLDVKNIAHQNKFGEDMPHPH

HDAC8 = target: T3, HDAC8 (Homo sapiens, UniProt Q9BY41); assay: HDAC fluorometric enzymatic inhibition assay, HDAC8; type: biochemical
T3 construct: purchased Enzo Life Sciences BML-AK518
T3 sequence (Q9BY41 1-377): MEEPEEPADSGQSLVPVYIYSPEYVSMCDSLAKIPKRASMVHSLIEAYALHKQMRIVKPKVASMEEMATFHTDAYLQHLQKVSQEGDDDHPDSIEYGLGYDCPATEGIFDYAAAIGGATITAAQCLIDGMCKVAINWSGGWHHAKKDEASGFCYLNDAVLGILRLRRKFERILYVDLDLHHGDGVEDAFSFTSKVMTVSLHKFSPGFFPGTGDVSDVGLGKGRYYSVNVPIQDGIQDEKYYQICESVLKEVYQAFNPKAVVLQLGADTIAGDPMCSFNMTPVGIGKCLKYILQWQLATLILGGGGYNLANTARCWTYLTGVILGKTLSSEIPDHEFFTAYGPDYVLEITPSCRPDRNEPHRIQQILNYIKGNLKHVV

cancer cell lines = assay: Antiproliferative effect, cell line not stated; type: cell-based; conditions: second series, seven cancer cell lines
Experimental: as §1, §2

T1 sequence (Q13547 whole entry): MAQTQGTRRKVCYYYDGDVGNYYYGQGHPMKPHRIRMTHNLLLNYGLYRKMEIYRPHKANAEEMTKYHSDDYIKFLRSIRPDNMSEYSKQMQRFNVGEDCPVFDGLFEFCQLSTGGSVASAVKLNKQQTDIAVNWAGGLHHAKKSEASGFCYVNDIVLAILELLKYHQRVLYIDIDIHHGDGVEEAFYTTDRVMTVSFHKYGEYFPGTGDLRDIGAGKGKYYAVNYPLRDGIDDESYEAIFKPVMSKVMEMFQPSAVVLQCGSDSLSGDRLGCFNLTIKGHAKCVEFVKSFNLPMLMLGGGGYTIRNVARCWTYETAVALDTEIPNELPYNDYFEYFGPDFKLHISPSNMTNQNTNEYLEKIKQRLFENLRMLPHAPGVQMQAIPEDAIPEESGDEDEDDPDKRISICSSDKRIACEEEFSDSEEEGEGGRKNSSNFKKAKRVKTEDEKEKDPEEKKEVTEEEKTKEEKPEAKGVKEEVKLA

IC50 (HDAC1; read-out: IC50 (nM) HDAC1) [nM]	IC50 (HDAC1; read-out: IC50 HDAC1) [nM]	IC50 (HDAC6) [nM]	selectivity for HDAC6 (HDAC6; HDAC6 compared with HDAC8 and HDAC1) [fold]	IC50 (HDAC8; read-out: IC50 (nM) HDAC8) [nM]	IC50 (HDAC8; read-out: IC50 HDAC8) [nM]	SMILES	IC50 (HepG2 cells) [µM]	IC50 (MIA PaCa-2 cells) [µM]	IC50 (MCF-7 cells) [µM]	IC50 (HCC1954 cells; Homo sapiens, HCC1954, 72 h) [µM]	IC50 (RCC4-VA cells) [µM]	IC50 (RCC4-VHL cells) [µM]	IC50 (SH-SY5Y cells) [µM]	IC50 (HCC1954 cells) [µM]	biological activity (cancer cell lines)
						CCCCc1ccc(C(=O)N[C@@H](Cc2ccc(O)cc2)C(=O)NO)cc1 [YSL-99, (S)-4-butyl-N-(1-(hydroxyamino)-3-(4-hydroxyphenyl)-1-oxopropan-2-yl)benzamide]	30.9	> 50	8.96	42.9	> 50	> 50	36.2		
						CCCCc1ccc(C(=O)N[C@H](Cc2ccccc2)C(=O)NO)cc1 [YSL-106, (R)-4-butyl-N-(1-(hydroxyamino)-1-oxo-3-phenylpropan-2-yl)benzamide]	11.6	21.6	4.94	26.1	12.9	21.1	18.9		
259000	259000	0.537	4000	2240	2240	CCCCc1ccc(C(=O)N[C@@H](Cc2cccc3ccccc23)C(=O)NO)cc1 [YSL-109, (S)-4-butyl-N-(1-(hydroxyamino)-3-(naphthalen-1-yl)-1-oxopropan-2-yl)benzamide]	3.39	> 50	3.41	3.41	24.9	32.7	6.42	3.77	
						CCCCc1ccc(C(=O)N[C@@H](Cc2ccc3ccccc3c2)C(=O)NO)cc1 [YSL-112, (S)-4-butyl-N-(1-(hydroxyamino)-3-(naphthalen-2-yl)-1-oxopropan-2-yl)benzamide]	10.8	> 50	7.27	7.62	31.9	46.5	21.4		
						CCCCc1ccc(C(=O)N[C@@H](Cc2ccc(F)cc2)C(=O)NO)cc1 [YSL-116, (S)-4-butyl-N-(3-(4-fluorophenyl)-1-(hydroxyamino)-1-oxopropan-2-yl)benzamide]	18	> 50	27.9	18	38.9	44.2	19.6		
						CCCCc1ccc(C(=O)N[C@@H](Cc2ccc(I)cc2)C(=O)NO)cc1 [YSL-121, (S)-4-butyl-N-(1-(hydroxyamino)-3-(4-iodophenyl)-1-oxopropan-2-yl)benzamide]	41.1	> 50	> 50	8.49	> 50	> 50	1.41		
						CCCCc1ccc(C(=O)N[C@@H](Cc2ccc([N+](=O)[O-])cc2)C(=O)NO)cc1 [YSL-125, (S)-4-butyl-N-(1-(hydroxyamino)-3-(4-nitrophenyl)-1-oxopropan-2-yl)benzamide]	15.7	42.5	16.6	14.8	10.5	8.02	6.5		
						CCCCc1ccc(C(=O)N[C@H](C(=O)NO)c2ccccc2)cc1 [YSL-129, (S)-4-butyl-N-(2-(hydroxyamino)-2-oxo-1-phenylethyl)benzamide]	> 50	> 50	> 50	> 50	> 50	> 50	> 50		did not show biological activity
